We go through one compound from US20260137707A1, “METHODS OF MODULATING ATXN2 EXPRESSION” (University of Utah Research Foundation, priority 2022, published 2026).

“Also recorded” adds a separate entry of the source.

One series concerns ATXN2-Q22. Description: BAC-Q22 mice, ATXN2 western blot. It is filed as in vivo. How it is done: (§1) BAC-ATXN2-Q22 (BAC-Q22) mice were used as previously described. BAC-Q22 are transgenic for the complete human ATXN2 gene with all introns and exons, including 16 kb upstream sequence driving ATXN2 expression and the complete 3′-UTR. The mice used in this study were maintained on a mixed B6;D2 background with backcrossing to wildtype vendor-purchased (Jackson Laboratories) mice every five generations. Mice were treated with 17-DMAG or HSP990 by intraperitoneal (IP) injection, 200-300 μl total volume. 17-DMAG was diluted in 40% DMSO and 0.05% Tween 20 and mice received 100 mg/kg 17-DMAG. HSP990 was diluted in 0.6% DMSO and 0.05% Tween 20 and mice received 4 mg/kg HSP990. Control treated mice included vehicle alone. Mice were treated repeatedly as described in Results. Mouse husbandry and surgical procedures were in accordance to Institutional Animal Care and Use Committee (IACUC) approved protocols.
Proteins were prepared, separated on precast polyacrylamide gels (Bio-Rad), transferred to Hybond (Amersham) and detected by ECL (Amersham) as previously described.
Antibodies included the following: mouse monoclonal anti-Ataxin-2 antibody (Clone 22/Ataxin-2) (BD Biosciences, 611378), rabbit monoclonal anti-Hsp70 antibody (EPR16892) (Abcam, ab181606), mouse monoclonal anti-β-Actin-peroxidase antibody (clone AC-15) (Sigma-Aldrich, A3854), rabbit polyclonal anti-Staufen antibody (Novus Biologicals, NBP1-33202), mouse monoclonal anti-CHOP (L63F7) antibody (Cell Signaling Technology, 2895), rabbit polyclonal anti-phospho-eIF2a (Ser51) antibody (Cell Signaling Technology, 9721), rabbit polyclonal anti-mTOR antibody (Cell Signaling Technology, 2972), rabbit polyclonal anti-SQSTM1/p62 antibody (Cell Signaling Technology, 5114), rabbit polyclonal anti-LC3B antibody (Novus Biologicals, NB100-2220), rabbit monoclonal anti-BiP antibody (C50B12) (Cell Signaling Technology, 3177). Secondary antibodies included peroxidase-conjugated horse anti-mouse IgG (Vector Laboratories, PI-2000) and peroxidase AffiniPure goat anti-rabbit IgG (Jackson ImmunoResearch Laboratories, 111-035-144).
Since 17-DMAG reduced expression of both the wildtype and mutant ATXN2 proteins, its effects were tested using only ATXN2-BAC mice harboring the non-mutant human ATXN2-Q22 gene (BAC-Q22 mice). Reliable detection of mutant ATXN2 protein by western blot in samples isolated from SCA2 BAC mice is possible, but it is challenging and involves use of the 1C2 antibody. To test efficacy of 17-DMAG in the wildtype ATXN2 mice, 27 wk old BAC-Q22 mice were treated (n=4 per group, 2 males, 2 females) every other day over 16-days (days 1, 3, 5, 7, 9, 11, 13, 15) then sacrificed on day 16. […] Three blots were quantified.

The subject of a further series is HSP70. As to the kind of experiment: BAC-Q22 mice, HSP70 western blot. It is filed as in vivo. Conditions: IP every other day, 17-DMAG 100 mg/kg, HSP990 4 mg/kg. How it is done: as §1
Proteins were prepared, separated on precast polyacrylamide gels (Bio-Rad), transferred to Hybond (Amersham) and detected by ECL (Amersham) as previously described. […]
Since 17-DMAG reduced expression of both the wildtype and mutant ATXN2 proteins, its effects were tested using only ATXN2-BAC mice harboring the non-mutant human ATXN2-Q22 gene (BAC-Q22 mice). […] Three blots were quantified.

Series [1] is described as follows: BAC-Q22 mice, survival / tolerability. It is filed as in vivo. Conditions: IP every other day, 17-DMAG 100 mg/kg, HSP990 4 mg/kg. How it is done:
as §1
Since 17-DMAG reduced expression of both the wildtype and mutant ATXN2 proteins, its effects were tested using only ATXN2-BAC mice harboring the non-mutant human ATXN2-Q22 gene (BAC-Q22 mice). Reliable detection of mutant ATXN2 protein by western blot in samples isolated from SCA2 BAC mice is possible, but it is challenging and involves use of the 1C2 antibody. […] Three blots were quantified. […]

The conditions of series [2]: cited from earlier work.

In the case of `COc1cccc(-c2cc(F)ccc2[C@H]2Cc3nc(N)nc(C)c3C(=O)N2)n1` [HSP990], in the series on ATXN2-Q22 (ATXN2-BAC mice, IP, 17-DMAG 100 mg/kg, HSP990 4 mg/kg), the “reduction of ATXN2 protein abundance” value is 80%. Besides, the ATXN2 abundance result in the series on ATXN2-Q22 (BAC-Q22 mice, IP every other day, 17-DMAG 100 mg/kg 16 days, HSP990 4 mg/kg 10 days) is on record as “reduced ATXN2 abundance”. Further, the HSP70 result in the series on HSP70 is on record as “increased HSP70”. Besides, the survival / tolerability result in series [1] is given as “the two females in the HSP990 treatment group did not survive; also recorded: half of the mice treated with HSP990 did not survive treatment”. Also, the “toxicity in clinical trial” value in series [2] is “dose-limiting neurotoxicities”.
